Source: ChEMBL document CHEMBL5724914, “Linking interpersonal differences in gut microbiota composition and drug biotransformation activity” (2024)

Experiments:
[1] = human gut metagenome, 24 h, 2 µM
[2] = human gut metagenome, 24 h, 2 µM; remark: listed apart in the source
[3] = The drug is tested on WLS-090 corresponding to human gut metagenome with ENA study accession number: PRJEB37062 and ENA sample accession number: ERS12561753 for biotransformation under anaerobic condition. The drug concentrations were measured over 9 timepoints collected between 0 and 24 hours of incubation by liquid-chromatography-coupled mass spectrometry (LC–MS); conditions: 2 µM
[4] = The drug is tested on WLS-098 corresponding to human gut metagenome with ENA study accession number: PRJEB37062 and ENA sample accession number: ERS12561754 for biotransformation under anaerobic condition. The drug concentrations were measured over 9 timepoints collected between 0 and 24 hours of incubation by liquid-chromatography-coupled mass spectrometry (LC–MS); conditions: 2 µM
[5] = human gut metagenome, 24 h, 2 µM; remark: listed apart in the source
[6] = human gut metagenome, 24 h, 2 µM; remark: listed apart in the source
[7] = The drug is tested on WLS-370 corresponding to human gut metagenome with ENA study accession number: PRJEB37062 and ENA sample accession number: ERS12561793 for biotransformation under anaerobic condition. The drug concentrations were measured over 9 timepoints collected between 0 and 24 hours of incubation by liquid-chromatography-coupled mass spectrometry (LC–MS); conditions: 2 µM
[8] = human gut metagenome, 24 h, 2 µM; remark: listed apart in the source
[9] = The drug is tested on WLS-082 corresponding to human gut metagenome with ENA study accession number: PRJEB37062 and ENA sample accession number: ERS12561751 for biotransformation under anaerobic condition. The drug concentrations were measured over 9 timepoints collected between 0 and 24 hours of incubation by liquid-chromatography-coupled mass spectrometry (LC–MS); conditions: 2 µM
Further: call rule not given here.

Row | Structure (SMILES) | Bacterial Biotransformation [1] | Bacterial Biotransformation [2] | Bacterial Biotransformation [3] | Bacterial Biotransformation [4] | Bacterial Biotransformation [5] | Bacterial Biotransformation [6] | Bacterial Biotransformation [7] | Bacterial Biotransformation [8] | Bacterial Biotransformation [9]
1 | CCN(CC)CCOC(=O)C1(C2CCCCC2)CCCCC1 [DICYCLOMINE] | Compound metabolized | Compound NOT metabolized | Compound metabolized | Compound NOT metabolized | Compound metabolized | Compound NOT metabolized | Compound NOT metabolized | Compound NOT metabolized | Compound metabolized
2 | COC(=O)[C@H](c1ccccc1Cl)N1CCc2sccc2C1.O=S(=O)(O)O [CLOPIDOGREL BISULFATE] | Compound metabolized | Compound metabolized | Compound metabolized | Compound metabolized | Compound metabolized | Compound metabolized | Compound metabolized | Compound metabolized | Compound metabolized
3 | COc1ccccc1OCCNCC(O)COc1cccc2[nH]c3ccccc3c12 (stereo not drawn) [CARVEDILOL] | Compound metabolized | Compound NOT metabolized | Compound metabolized | Compound metabolized | Compound metabolized | Compound metabolized | Compound NOT metabolized | Compound metabolized | Compound metabolized
4 | CC1Cc2ccccc2N1NC(=O)c1ccc(Cl)c(S(N)(=O)=O)c1 (stereo not drawn) [INDAPAMIDE] | Compound NOT metabolized | Compound NOT metabolized | Compound NOT metabolized | Compound NOT metabolized | Compound NOT metabolized | Compound NOT metabolized | Compound NOT metabolized | Compound NOT metabolized | Compound NOT metabolized
5 | CCN(CC)C(=O)C1(c2ccccc2)CC1CN (stereo not drawn) | Compound NOT metabolized | Compound NOT metabolized | Compound NOT metabolized | Compound NOT metabolized | Compound NOT metabolized | Compound NOT metabolized | Compound NOT metabolized | Compound NOT metabolized | Compound NOT metabolized
6 | CCN(CC)CCNC(=O)c1ccc(NC(C)=O)cc1 [ACECAINIDE] | Compound metabolized | Compound NOT metabolized | Compound metabolized | Compound metabolized | Compound NOT metabolized | Compound NOT metabolized | Compound NOT metabolized | Compound NOT metabolized | Compound NOT metabolized
7 | C[N+]12CCC(CC1)C(OC(=O)C(O)(c1ccccc1)c1ccccc1)C2.[Br-] (stereo not drawn) [CLIDINIUM BROMIDE] | Compound metabolized | Compound metabolized | Compound metabolized | Compound NOT metabolized | Compound NOT metabolized | Compound metabolized | Compound metabolized | Compound metabolized | Compound NOT metabolized
8 | Clc1cccc(Cl)c1N=C1NCCN1 [CLONIDINE] | Compound metabolized | Compound NOT metabolized | Compound metabolized | Compound metabolized | Compound NOT metabolized | Compound metabolized | Compound NOT metabolized | Compound NOT metabolized | Compound NOT metabolized
9 | O=C(CCCN1CCC2(CC1)C(=O)NCN2c1ccccc1)c1ccc(F)cc1 [SPIPERONE] | Compound metabolized | Compound NOT metabolized | Compound NOT metabolized | Compound metabolized | Compound NOT metabolized | Compound NOT metabolized | Compound NOT metabolized | Compound NOT metabolized | Compound NOT metabolized
10 | CCc1oc2ccccc2c1C(=O)c1cc(Br)c(O)c(Br)c1 [BENZBROMARONE] | Compound metabolized | Compound NOT metabolized | Compound metabolized | Compound metabolized | Compound metabolized | Compound NOT metabolized | Compound NOT metabolized | Compound metabolized | Compound metabolized
11 | CC(=O)O[C@H]1C(=O)[C@@]2(C)[C@H]([C@H](OC(=O)c3ccccc3)[C@]3(O)C[C@H](OC(=O)[C@H](O)[C@@H](NC(=O)c4ccccc4)c4ccccc4)C(C)=C1C3(C)C)[C@]1(OC(C)=O)CO[C@@H]1C[C@@H]2O [PACLITAXEL] | Compound NOT metabolized | Compound NOT metabolized | Compound NOT metabolized | Compound NOT metabolized | Compound NOT metabolized | Compound NOT metabolized | Compound NOT metabolized | Compound NOT metabolized | Compound metabolized
12 | CC(=O)O[C@]1(C(C)=O)CC[C@H]2[C@@H]3C=C(C)C4=CC(=O)CC[C@]4(C)[C@H]3CC[C@@]21C [MEGESTROL ACETATE] | Compound metabolized | Compound metabolized | Compound metabolized | Compound metabolized | Compound metabolized | Compound metabolized | Compound metabolized | Compound metabolized | Compound metabolized
